From article PMC5068113 (Pharmacognosy Magazine, 2016)
Converted amounts (≈) assume the structure as drawn.

Tests used:
Assay in all cases: CYP inhibition by substrate-cocktail method in HLM
Type in all cases: in vitro ADME
human CYP2C8 = target: T1, human CYP2C8 (Homo sapiens, UniProt P10632)
T1 sequence (P10632 1-490): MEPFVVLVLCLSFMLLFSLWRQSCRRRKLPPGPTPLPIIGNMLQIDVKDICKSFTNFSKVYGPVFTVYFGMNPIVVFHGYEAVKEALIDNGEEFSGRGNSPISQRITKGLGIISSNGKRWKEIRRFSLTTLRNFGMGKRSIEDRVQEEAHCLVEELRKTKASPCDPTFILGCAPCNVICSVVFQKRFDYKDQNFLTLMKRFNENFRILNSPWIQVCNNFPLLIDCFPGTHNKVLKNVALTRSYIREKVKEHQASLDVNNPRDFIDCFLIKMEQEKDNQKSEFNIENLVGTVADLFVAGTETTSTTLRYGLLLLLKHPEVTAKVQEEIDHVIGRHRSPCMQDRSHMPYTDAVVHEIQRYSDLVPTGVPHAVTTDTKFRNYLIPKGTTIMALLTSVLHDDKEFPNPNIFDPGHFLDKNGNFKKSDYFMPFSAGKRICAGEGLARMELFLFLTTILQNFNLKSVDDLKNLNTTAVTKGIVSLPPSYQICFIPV

CYP2D6 = CYP2D6 (Homo sapiens, UniProt P10635); conditions: human liver microsomes, pH 7.4, probe dextromethorphan
Chain of CYP2D6 (P10635 whole entry): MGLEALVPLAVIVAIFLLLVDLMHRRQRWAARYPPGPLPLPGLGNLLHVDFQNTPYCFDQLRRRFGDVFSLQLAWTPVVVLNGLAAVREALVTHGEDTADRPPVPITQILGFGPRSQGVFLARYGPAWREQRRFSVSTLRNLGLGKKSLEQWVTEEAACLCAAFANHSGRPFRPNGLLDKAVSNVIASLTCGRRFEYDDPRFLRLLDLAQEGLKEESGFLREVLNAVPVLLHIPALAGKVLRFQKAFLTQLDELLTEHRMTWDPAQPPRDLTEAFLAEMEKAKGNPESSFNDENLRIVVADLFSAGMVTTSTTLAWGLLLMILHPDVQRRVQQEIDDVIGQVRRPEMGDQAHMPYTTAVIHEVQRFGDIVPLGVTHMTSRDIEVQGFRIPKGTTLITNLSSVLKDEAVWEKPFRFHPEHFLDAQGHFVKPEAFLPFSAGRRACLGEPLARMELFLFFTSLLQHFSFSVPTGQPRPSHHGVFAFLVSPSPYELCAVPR

CYP1A2 = target: T2, CYP1A2 (Homo sapiens, UniProt P05177); conditions: human liver microsomes, pH 7.4, probe tacrine
T2 sequence (P05177 1-516): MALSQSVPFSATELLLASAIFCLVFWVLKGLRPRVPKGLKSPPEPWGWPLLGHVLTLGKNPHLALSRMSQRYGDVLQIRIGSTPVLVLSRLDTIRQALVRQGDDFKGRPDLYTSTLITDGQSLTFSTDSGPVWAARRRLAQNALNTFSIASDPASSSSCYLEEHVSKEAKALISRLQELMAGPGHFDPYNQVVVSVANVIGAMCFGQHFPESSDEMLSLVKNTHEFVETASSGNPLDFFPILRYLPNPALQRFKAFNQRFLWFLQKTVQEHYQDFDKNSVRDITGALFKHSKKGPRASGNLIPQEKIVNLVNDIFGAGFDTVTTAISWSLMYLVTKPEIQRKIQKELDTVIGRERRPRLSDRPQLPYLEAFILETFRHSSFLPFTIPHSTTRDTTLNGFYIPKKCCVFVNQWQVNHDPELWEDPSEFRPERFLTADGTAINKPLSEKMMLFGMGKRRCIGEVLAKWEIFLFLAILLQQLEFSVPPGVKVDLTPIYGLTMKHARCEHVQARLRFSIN

CYP2C9 = CYP2C9 (Homo sapiens, UniProt P11712); conditions: human liver microsomes, pH 7.4, probe diclofenac
Chain of CYP2C9 (P11712 whole entry): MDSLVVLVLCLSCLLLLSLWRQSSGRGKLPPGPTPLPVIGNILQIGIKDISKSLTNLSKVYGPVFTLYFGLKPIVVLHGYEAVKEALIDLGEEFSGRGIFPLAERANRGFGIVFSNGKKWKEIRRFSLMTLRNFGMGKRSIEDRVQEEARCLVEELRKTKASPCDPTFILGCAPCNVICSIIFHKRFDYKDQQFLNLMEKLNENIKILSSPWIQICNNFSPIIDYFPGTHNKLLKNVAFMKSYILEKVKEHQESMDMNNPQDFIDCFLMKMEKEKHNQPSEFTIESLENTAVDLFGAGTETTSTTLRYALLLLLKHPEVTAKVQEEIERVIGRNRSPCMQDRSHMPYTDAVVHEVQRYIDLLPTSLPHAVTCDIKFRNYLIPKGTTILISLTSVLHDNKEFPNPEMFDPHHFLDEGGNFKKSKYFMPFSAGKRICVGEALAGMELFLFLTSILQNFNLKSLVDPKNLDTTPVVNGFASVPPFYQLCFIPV

CC1(CO)C(O[C@@H]2O[C@H](C(=O)O)[C@@H](O)[C@H](O)[C@H]2O)CC[C@@]2(C)C1CC[C@]1(C)C2CC=C2[C@H]3CC(C)(C)[C@H](O)[C@@H](O)[C@]3(CO)[C@H](O)C[C@]21C (stereo partly shown) [DGA, deacylgymnemic acid]
effect on CYP2C8 activity (in words) (human CYP2C8): unaffected

Clc1ccc(COC(Cn2ccnc2)c2ccc(Cl)cc2Cl)c(Cl)c1 (stereo not shown) [MCZN, miconazole]
IC50 at 8 min (CYP2D6): 0.56 µg/mL (≈ 1.35 µM) | IC50 at 8 min (CYP1A2): 0.89 µg/mL (≈ 2.14 µM) | IC50 at 8 min (CYP2C9): 0.19 µg/mL (≈ 0.457 µM)
